The values below come from patent publication US20210008177A1 (priority 2019, published 2021).

In assay [1] the test system is Kunming mice. The assay is classed as in vivo. The settings on record: for average pain threshold before injection, difference between physiological saline, cobrotoxin and cobrotoxin+morphine groups: day 5 through day 11.
Source text: 100 Kunming mice were subjected to tail pressure tests for 4 days to measure the mechanical pain threshold and the average pain threshold will be set as the baseline pain threshold. • i. Put the mouse gently into the restraint and put its tail under the conical tip of the pain test apparatus. Press the pedal switch, and increase the pressure on the proximal end of the tail evenly until signs of the first pain response (struggle, squeaking) occurs. Record pain-inducing pressure when pain response occurs (units: g) as the value of pain threshold. The pressure was released upon reaching 700 g with no indication of a response to avoid tissue injury. Measurements were also conducted at the middle and distal ends of the tail of the same mouse with a minimum of 30 seconds time intervals between each measurement. • ii. Put the tested mice in a cage and test the next one until every mouse in the group is tested. The average of the three measurements (i.e., the proximal, mid and distal ends of each mouse tail) was used as the pain threshold (g) of each mouse when all mice were subjected to a tail pressure test. • iii. In the following 3 days, all mice underwent repeated measurements of tail pressure pain threshold. • iv. […] The mice were then randomly divided into four groups: namely ‘physiological saline group’, ‘morphine group’, ‘cobrotoxin group’ and ‘cobrotoxin+morphine group’. Each group comprised of 20 mice, which is used for the hyperalgesia and tolerance test of the corresponding drugs in the group's name. Any surplus mice were excluded. • v. Lastly, each group of 20 mice was divided randomly again into two groups, with each group comprising 10 mice, as cobrotoxin of amino acid sequence ID NO.1, and cobrotoxin of amino acid sequence ID NO. 2 will be used for parallel testing
After 4 days of measurement of the mice's baseline pain threshold described in step 1, from the fifth day to the eleventh day, the measurement of pain threshold was performed before the injection. […]
Assay [2] concerns Kunming mice. The settings on record: mouse, in vivo.
Source text: To evaluate the therapeutic effects elapidea neurotoxins, one of the reliable morphine induced hyperalgesia/tolerance model in mice (Elhabazi, K et al) was created, and effects of the representative EXAMPLE compounds were investigated on the model.
100 Kunming mice were subjected to tail pressure tests for 4 days to measure the mechanical pain threshold and the average pain threshold will be set as the baseline pain threshold. • i. Put the mouse gently into the restraint and put its tail under the conical tip of the pain test apparatus. Press the pedal switch, and increase the pressure on the proximal end of the tail evenly until signs of the first pain response (struggle, squeaking) occurs. Record pain-inducing pressure when pain response occurs (units: g) as the value of pain threshold. The pressure was released upon reaching 700 g with no indication of a response to avoid tissue injury. Measurements were also conducted at the middle and distal ends of the tail of the same mouse with a minimum of 30 seconds time intervals between each measurement. • ii. Put the tested mice in a cage and test the next one until every mouse in the group is tested. […] The pain threshold of the mice measured by the tail pressure test ranged from 180 g to 220 g. […]
Assay [3] relates to SD rats. The settings on record: rat, in vivo.
Procedure: Writhing test was applied to the rats, which is a chemical method used to induce pain of the peripheral origin by injection of irritant principles like acetic acid in rats. Analgesic effect of the test compound is inferred from the decrease in the frequency of writhe.
The aforementioned four groups of rats were injected with sterile saline (NaCl 0.9% 1 ml), morphine (3 mg/kg), cobrotoxin (50 ug/kg), and cobrotoxin (25 ug/kg)+morphine (1.5 mg/kg) respectively.
Following Step1, the aforementioned four groups SD rats were injected with 1.5% acetic acid solution (1 ml/rat) again 150 and 210 minutes after the initial injection of 4 different drugs respectively.
For assay [4], the system named is NO. In words: NO content in lumbar spinal cord tissue of mice after tolerance and hyperalgesia tests. The settings on record: lumbar spinal cord homogenate of mice after 7 days of injections, cobrotoxin of sequence ID NO.1, SD in own column.
Assay [5] relates to IL-6. The assay can be described thus: IL-6 in lumbar spinal cord tissue of mice after tolerance and hyperalgesia tests (ELISA). The note with it: lumbar spinal cord homogenate of mice after 7 days of injections, cobrotoxin of sequence ID NO.1, SD in own column.
The subject of assay [6] is NOS. The assay can be described thus: NOS activity in lumbar spinal cord tissue of mice after tolerance and hyperalgesia tests. The note with it: lumbar spinal cord homogenate of mice after 7 days of injections, cobrotoxin of sequence ID NO.1, SD in own column.
Assay [7] has as its system IL-1β. The assay can be described thus: IL-1β in lumbar spinal cord tissue of mice after tolerance and hyperalgesia tests (ELISA). The note with it: lumbar spinal cord homogenate of mice after 7 days of injections, cobrotoxin of sequence ID NO.1, SD in own column. (ELISA stands for enzyme-linked immunosorbent assay.)

Entries after “also recorded” stand apart in the source; their conditions may differ. Where two headings read alike, the source gives them in different places.

Take `CN1CC[C@]23c4c5ccc(O)c4O[C@H]2[C@@H](O)C=C[C@H]3[C@H]1C5` [morphine]: the “mean pain threshold before injection (hyperalgesia)” value in assay [1] (mouse, in vivo) is reported as “significantly lower”. Further, in assay [2], the “average pain threshold one hour after injection, difference within the group between day five, eight and eleven” value is listed as “significant statistical difference”. Also, the “mean pain threshold one hour after injection, course within the group (tolerance)” value in assay [2] is recorded as “significantly decreased from day 5 to day 11”. Moreover, the “analgesic effect in writhing test” value in assay [3] was “lower analgesic effect; also recorded: almost no signs of any analgesic effect”. Besides, the “number of writhing, difference within the group between 60, 150 and 210 minutes” value in assay [3] is recorded as “significant statistical difference”. The values for the NO entry in assay [4] and in assay [4] (listed as Morphine) were “significantly higher” and 1.61 μmol/g protein, respectively. In addition, the IL-6 result in assay [5] is listed as “significantly higher”; in assay [5] (listed as Morphine) it was 19.40 pg/mg protein. The NOS entry is listed as “significantly higher” in assay [6] and 7.56 U/mg protein in assay [6] (listed as Morphine). Further, the IL-1β entry is on record as “significantly higher” in assay [7] and 16.80 pg/mg protein in assay [7] (listed as Morphine).

B1: Cobrotoxin of amino acid sequence ID No.1 (protein)
chain: LECHNQQSSQTPTTTGCSGGETNCYKKRWRDHRGYRTERGCGCPSVKNGIEINCCTTDRCNN
modifications: Naja atra or Naja kaouthia
Take B1: in assay [1] (FIG. 3, cobrotoxin of sequence ID No.1), the “average pain threshold before injection, difference between physiological saline, cobrotoxin and cobrotoxin+morphine groups” value was “No significant statistical differences”.

B2: Cobrotoxin of amino acid sequence ID No.2: mktllltllv vtivcldlgy tlechnqqss qtptttgcsg getncykkrw rdhrgyrter gcgcpsvkng ieinccttdr cnn (protein)
chain: MKTLLLTLLVVTIVCLDLGYTLECHNQQSSQTPTTTGCSGGETNCYKKRWRDHRGYRTERGCGCPSVKNGIEINCCTTDRCNN
modifications: Naja atra or Naja kaouthia
notes: mktllltllv vtivcldlgy tlechnqqss qtptttgcsg getncykkrw rdhrgyrter gcgcpsvkng ieinccttdr cnn
B2: the “average pain threshold before injection, difference between physiological saline, cobrotoxin and cobrotoxin+morphine groups” value in assay [1] (FIG. 4, cobrotoxin of sequence ID No.2) is recorded as “No significant statistical differences”.
